# Measurements reported in patent US7618968B2, “Aryl triazines as LPAAT-β inhibitors and uses thereof” (Cell Therapeutics, Inc., priority 2001, dated 2009).
# Target: T1, LPAAT-β (Homo sapiens, UniProt O15120)
# T1 construct: the full-length human LPAAT-β cDNA was amplified by PCR; poly-histidine tag (from pFastBac HTc vector) (N); made in house; host or cells: Sf9 insect cells (baculovirus); membrane fraction used
# T1 sequence (O15120 24-278): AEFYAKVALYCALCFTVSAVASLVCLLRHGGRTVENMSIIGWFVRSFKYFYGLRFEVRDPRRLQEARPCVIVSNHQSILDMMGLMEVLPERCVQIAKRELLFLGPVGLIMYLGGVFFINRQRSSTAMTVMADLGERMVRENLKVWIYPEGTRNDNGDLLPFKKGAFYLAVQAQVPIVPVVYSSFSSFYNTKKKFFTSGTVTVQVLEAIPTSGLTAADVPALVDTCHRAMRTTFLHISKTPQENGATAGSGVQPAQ
# Assay: LPAAT-β cell-free assay (colorimetric primary screen, radiometric/fluorescent TLC secondary assay)
# Type: biochemical
# Settings: Sf9 cell membrane overexpressing LPAAT-β
# From the text: A. Production of Recombinant LPAAT-β for Assays
# For the construction of Baculovirus expression vectors, the full-length human LPAAT-β cDNA was amplified by PCR from the DNA template pCE9.LPAAT-β (West et al., DNA Cell Biol. 16:691-701 (1997)) using the primers 5′-[…] […] […] […]-3′ (olpb1F; SEQ ID NO:1) and 5′-[…] […] […]-3′ (olpb1R; SEQ ID NO:2). The ˜870 bp fragment generated was reamplified by PCR using the primers 5′[…] […] […] […] ATC-3′ (olpb2F; SEQ ID NO:3) and 5′-[…] […] […]-3′ (olpb1R; SEQ ID NO:2). The ˜890 bp fragment generated was then cleaved with Sal I and Xba I for insertion into pFastBac™ HTc vector (Life Technologies, Gaithersberg, Md.) between the Sal I and Xba I sites for the generation of the plasmid pFB.LPAAT-β. This plasmid was then transformed into E. coli DH10Bac™ (Life Technologies, Gaithersberg, Md.) for the generation of recombinant Bacmid DNA for transfection in HighFive (Invitrogen, San Diego, Calif.) or SF9 insect cells for the production of recombinant Baculovirus stocks using the protocol described in the Bac-to-Bac® Baculovirus Expression System (Life Technologies, Gaithersberg, Md.), a eukaryotic expression system for generating recombinant baculovirus through site-specific transposition in E. coli. Viral stocks harvested from the transfected cells can then be used to infect fresh insect cells for the subsequence expression of LPAAT-β fusion protein with a poly-histidine tag and a myc-epitope near its N-terminus. The membrane fraction from these Sf9 cells would be the source of LPAAT enzyme.
# B. Preparation of Cell Membranes from Sf9 Cells
# For the preparation of membranes from Sf9 Cells, all steps are performed on ice or at 4° C. Sf9 cell pellets (˜10^8 cells) were thawed and resuspended in 1-2 ml of buffer A (20 mM Hepes, pH 7.5, 1 mM DTT, 1 mM EDTA, 20% w/v glycerol, 1 mM Benzamidine, 1 μg/ml soybean trypsin inhibitor (SBTI), 1 μg/ml pepstatin A) w/o DTT but with 1 mM Pefabloc. The cells were lysed by sonication using a Branson Sonifier at output=2, duty cycle=2, 10 pulses each at 10s. with the tip of small sonicator probe submerged but not touching the walls. DTT was then added to 1 mM from a 1 M stock. The samples were centrifuged at 1500 rpm for 5 min. The low speed supernatant was saved and centrifuged (TLA 100.3 rotor, polycarbonate tubes, 2 ml/tube or 1.5 ml/tube minimum) at 100000×g for 1 hr. The high speed pellet was resuspend in Buffer A with a probe sonicator (10 pulses @ output #2 and duty cycle 20%) as a source of LPAAT enzyme.
# C. Assay of LPAAT-β Activity
# LPAAT-β catalyzes the transfer of an acyl group from a donor such as acyl-CoA to LPA. The transfer of the acyl group from acyl-CoA to LPA leads to the release of free CoA, which can be reacted with the thiol reagent, 5,5′-dithiobis(2-nitrobenzoic acid) (DTNB). The reaction between DTNB and the free sulfhydryl group from CoA generates a yellow-colored product, 3-carboxylato-4-nitrothiophenolate (CNP), that absorbs at 413 nm. LPAAT-β derived from Sf9 cell membrane overexpressing LPAAT-β were resuspended in HEPES saline buffer (20 mM HEPES pH 7.5, 150 mM NaCl), 1 mg/ml BSA and 72 μl aliquots were distributed into 96-well microtiter plates. 8 μl of compound of interest at 200 μM dissolved in 100% DMSO was added into each well. 20 μl of 1 mM 18:1-CoA and 1 mM sn-1-18:1 lysoPA was then added to each well to initiate the reaction and allowed to run at room temperature for 25 min. 100 μl of 1 mM DTNB in 100% ethanol was then added to each well to quench the reaction and for color development. The absorbance at 405 nm, measured using a spectrophotometer plate reader, is proportional to the activity of LPAAT-β in the sample. This colorimetric assay was used for the high throughput screening of LPAAT inhibitors.
row,Compound,IC50
1,"COc1ccc(Cl)cc1-c1nc(N)nc(Nc2ccc([N+](=O)[O-])cc2)n1 [Example 3, 6-(5-Chloro-2-methoxyphenyl)-N-(4-nitrophenyl)-[1,3,5]triazine-2,4-diamine]",22 nM
2,"Nc1nc(Nc2ccc(Cl)cc2)nc(-c2cc(C(F)(F)F)ccc2Cl)n1 [Example 81, N-(4-Chloro-phenyl)-6-(2-chloro-5-trifluoromethyl-phenyl)-[1,3,5]triazine-2,4-diamine]",100 nM
3,"CCCOc1ccc(Cl)cc1-c1nc(N)nc(Nc2ccc(Cl)cc2)n1 [Example 50, N-(4-Chloro-phenyl)-6-(5-chloro-2-propoxy-phenyl)-[1,3,5]triazine-2,4-diamine]",200 nM
4,"Cc1ccc(Cl)cc1-c1nc(N)nc(Nc2ccc(N=[N+]=[N-])cc2)n1 [Example 36, 6-(5-Chloro-2-methyl-phenyl)-N-(4-azido-phenyl)-amino-[1,3,5]triazine-2,4-diamine]",880 nM
5,"Nc1nc(Nc2ccc(Br)cc2)nc(-c2cc(Cl)ccc2C(F)(F)F)n1 [Example 40, N-(4-bromophenyl)-6-(5-chloro-2-trifluoromethylphenyl)-[1,3,5]triazine-2,4-diamine]",2600 nM
6,Cc1ccc(Cl)cc1-c1nc(Nc2ccc(Cl)cc2)nc(N2CCCCC2)n1 [Example 31],6000 nM
7,Cc1nc(Nc2ccc(Br)cc2)nc(-c2cc(Cl)ccc2C)n1 [Example 23],14 nM
8,"Cc1ccc(Cl)cc1-c1nc(N)nc(Nc2ccc(COC(=O)CN)cc2)n1 [Example 71, Amino-acetic acid 4-[4-amino-6-(5-chloro-2-methyl-phenyl)-[1,3,5]triazin-2ylamino]-benzyl ester]",480 nM
9,"CNC(=O)c1cc(Nc2nc(N)nc(-c3cc(Cl)ccc3C)n2)ccc1Cl [Example 43, 5-[4-amino-6-(5-chloro-2-methylphenyl)-[1,3,5]triazin-2-ylamino]-2-chloro-N-methylbenzamide]",400 nM
10,CCc1nc(Nc2ccc(Br)cc2)nc(-c2cc(Cl)ccc2C)n1 [Example 24],700 nM
11,"Cc1ccc(Nc2nc(N)nc(-c3cc(Cl)ccc3C)n2)cc1C [Example 59, 6-(5-Chloro-2-methyl-phenyl)-N-(3,4-dimethyl-phenyl)-[1,3,5]triazine-2,4-diamine]",400 nM
12,"N#Cc1ccc(Nc2nc(N)nc(-c3cc(Cl)ccc3Cl)n2)cc1 [Example 89, 4-[4-Amino-6-(2,5-dichlorophenyl)-[1,3,5]triazin-2-ylamino]-benzonitrile]",100 nM
13,"CCOc1ccc(Cl)cc1-c1nc(N)nc(Nc2ccc(Cl)c(C(=O)NC)c2)n1 [Example 62, 5-[4-Amino-6-(5-chloro-2-ethoxyphenyl)-[1,3,5]triazin-2-ylamino]-2-chloro-N-methylbenzamide]",1000 nM
14,"Cc1ccc(Cl)cc1-c1nc(N)nc(Nc2ccc(COC(=O)[C@@H](N)CC(=O)O)cc2)n1 [Example 72, (S)-2-Amino-succinic acid 1-{4-[4-amino-6-(5-chloro-2-methyl-phenyl)-[1,3,5]triazin-2-ylamino]-benzyl}ester]",1400 nM
15,"Nc1nc(Nc2ccc(Cl)cc2)nc(-c2cc(Br)ccc2Cl)n1 [Example 45, 6-(5-Bromo-2-chloro-phenyl)-N-(4-chloro-phenyl)-[1,3,5]triazine-2,4-diamine]",40 nM
16,"CCOc1ccc(Cl)cc1-c1nc(N)nc(Nc2ccc([N+](=O)[O-])cc2)n1 [Example 54, 6-(5-Chloro-2-ethoxyphenyl)-N-(4-nitrophenyl)-[1,3,5]triazine-2,4-diamine]",120 nM

# Continued by falling IC50, values first:
row,IC50,Compound
1,1300 nM,"Cc1ccc(Cl)cc1-c1nc(N)nc(Nc2ccc(COC(=O)[C@H](C)N)cc2)n1 [Example 77, 2-Amino-propionic acid 4-[4-amino-6-(5-chloro-2-methyl-phenyl)-[1,3,5]-triazin-2-ylamino]-benzyl ester]"
2,1100 nM,"CSc1nc(Nc2ccc(Br)cc2)nc(-c2cc(Cl)ccc2C)n1 [Example 29, (4-Bromo-phenyl)-[4-(5-chloro-2-methyl-phenyl)-6-methylsulfanyl-[1,3,5]triazin-2-yl]-amine]"
3,1000 nM,"COc1ccc(OC)c(-c2nc(N)nc(Nc3ccc(Cl)cc3)n2)c1 [Example 17, N-(4-chlorophenyl)-6-(2,5-dimethoxyphenyl)-[1,3,5]triazine-2,4-diamine]"
4,1000 nM,"CCc1ccc(Nc2nc(N)nc(-c3cc(Cl)ccc3C)n2)cc1 [Example 38, 6-(5-Chloro-2-methyl-phenyl)-N-(4-ethyl-phenyl)-[1,3,5]triazine-2,4-diamine]"
5,750 nM,"CCc1cccc(Nc2nc(N)nc(-c3cc(Cl)ccc3C)n2)c1 [Example 66, 6-(5-Chloro-2-methyl-phenyl)-N-(3-ethyl-phenyl)-[1,3,5]triazine-2,4-diamine]"
6,320 nM,"Cc1ccc(Nc2nc(N)nc(-c3cc(Cl)ccc3C)n2)cc1 [Example 39, 6-(5-Chloro-2-methyl-phenyl)-N-p-tolyl-[1,3,5]triazine-2,4-diamine]"
7,230 nM,"COc1ccc(Cl)cc1-c1nc(N)nc(Nc2ccc(C)cc2)n1 [Example 79, 6-(5-Chloro-2-methoxy-phenyl)-N-p-tolyl-[1,3,5]triazine-2,4-diamine]"
8,160 nM,"CNc1cc(Nc2nc(N)nc(-c3cc(Cl)ccc3C)n2)ccc1Cl [Example 34, N-(4-Chloro-3-methylamino-phenyl)-6-(5-chloro-2-methyl-phenyl)-[1,3,5]triazine-2,4-diamine]"
9,140 nM,"COc1ccc(Cl)cc1-c1nc(N)nc(Nc2ccc(Cl)c(Cl)c2)n1 [Example 8, 6-(5-Chloro-2-methoxyphenyl)-N-(3,4-dichlorophenyl)-[1,3,5]triazine-2,4-diamine]"
10,140 nM,"CN(C)c1ccc(Cl)cc1-c1nc(N)nc(Nc2ccc(Cl)cc2)n1 [Example 47, 6-(5-Chloro-2-dimethylaminophenyl)-N-(4-chlorophenyl)-[1,3,5]triazine-2,4-diamine]"
11,60 nM,"Cc1ccc(Cl)cc1-c1nc(N)nc(Nc2ccc(Br)cc2)n1 [Example 11, N-2-(4-Bromophenyl)-6-(5-chloro-2-methylphenyl)-[1,3,5]triazine-2,4-diamine]"
12,57 nM,"COc1ccc(Cl)cc1-c1nc(N)nc(Nc2ccc(Cl)cc2)n1 [Example 1, 6-(5-Chloro-2-methoxyphenyl)-N-(4-chlorophenyl)-[1,3,5]triazine-2,4-diamine]"
13,55 nM,"Cc1ccc(Cl)cc1-c1nc(N)nc(Nc2ccc(Cl)cc2)n1 [Example 9, 6-(5-Chloro-2-methylphenyl)-N-(4-Chlorophenyl)-[1,3,5]triazine-2,4-diamine]"
14,50 nM,"Nc1nc(Nc2ccc(Cl)cc2)nc(-c2cc(Cl)ccc2Cl)n1 [Example 4, 6-(2,5-Dichlorophenyl)-N-(4-chlorophenyl)-[1,3,5]triazine-2,4-diamine]"
15,4 nM,"Cc1ccc(Cl)cc1-c1nc(Cl)nc(Nc2ccc3cn[nH]c3c2)n1 [Example 26, [4-Chloro-6-(5-chloro-2-methyl-phenyl)-[1,3,5]triazin-2-yl]-(1H-indazol-6-yl)-amine]"
